Tested on: maternal HIV+ sera (antibodies)
Assay: RIA / ELISA binding of maternal HIV+ sera to gp120 and gp41 peptides (Example 3)
Design: species or system human
Details: for Binding of maternal sera to peptide (in words): Example 3
How it was run: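 Peptides were coated at 10 μg/ml in carbonate buffer pH 9.6 and blocked with 1% BSA. Sera at 1:50 and 1:500 were incubated overnight at 4°C and detected with ¹²⁵I anti-human IgG (RIA) or HRP/TMB at OD450 (ELISA). Specific binding was taken as peptide minus no-peptide wells, scored as a ratio to normal human serum.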

[1] = Serum No. 1, Non-Transmission Group
[2] = Serum No. 2, Non-Transmission Group
[3] = Serum No. 3, Non-Transmission Group
[4] = Serum No. 4, Transmission Group
[5] = Serum No. 5, Transmission Group
[6] = Serum No. 6, Non-Transmission Group
[7] = Serum No. 7, Non-Transmission Group
[8] = Serum No. 8, Non-Transmission Group
[9] = Serum No. 9, Non-Transmission Group
[10] = Serum No. 10, Transmission Group
[11] = Serum No. 11, Non-Transmission Group
[12] = Serum No. 12, Non-Transmission Group
[13] = Serum No. 13, Transmission Group
[14] = Serum No. 14, Transmission Group
[15] = Serum No. 15, Transmission Group
[16] = Serum No. 16, Non-Transmission Group
[17] = Serum No. 17, Non-Transmission Group
[18] = Serum No. 18, Non-Transmission Group
[19] = Serum No. 19, Transmission Group
[20] = Serum No. 20, Non-Transmission Group

Row | Sequence | Binding of maternal sera to peptide (in words) | Binding of maternal HIV+ serum to peptide (sera/NHS ratio) [1] | Binding of maternal HIV+ serum to peptide (sera/NHS ratio) [2] | Binding of maternal HIV+ serum to peptide (sera/NHS ratio) [3] | Binding of maternal HIV+ serum to peptide (sera/NHS ratio) [4] | Binding of maternal HIV+ serum to peptide (sera/NHS ratio) [5] | Binding of maternal HIV+ serum to peptide (sera/NHS ratio) [6] | Binding of maternal HIV+ serum to peptide (sera/NHS ratio) [7] | Binding of maternal HIV+ serum to peptide (sera/NHS ratio) [8] | Binding of maternal HIV+ serum to peptide (sera/NHS ratio) [9] | Binding of maternal HIV+ serum to peptide (sera/NHS ratio) [10] | Binding of maternal HIV+ serum to peptide (sera/NHS ratio) [11] | Binding of maternal HIV+ serum to peptide (sera/NHS ratio) [12] | Binding of maternal HIV+ serum to peptide (sera/NHS ratio) [13] | Binding of maternal HIV+ serum to peptide (sera/NHS ratio) [14] | Binding of maternal HIV+ serum to peptide (sera/NHS ratio) [15] | Binding of maternal HIV+ serum to peptide (sera/NHS ratio) [16] | Binding of maternal HIV+ serum to peptide (sera/NHS ratio) [17] | Binding of maternal HIV+ serum to peptide (sera/NHS ratio) [18] | Binding of maternal HIV+ serum to peptide (sera/NHS ratio) [19] | other results
1 | PQEVVLVNVTGENFNM [Peptide 96] | No binding | - (specific OD450 or cpm of sera sample binding to peptide divided by the specific OD450 or cpm of NHS sample binding to peptide, which value is less than 2) | - (specific OD450 or cpm of sera sample binding to peptide divided by the specific OD450 or cpm of NHS sample binding to peptide, which value is less than 2) | - (specific OD450 or cpm of sera sample binding to peptide divided by the specific OD450 or cpm of NHS sample binding to peptide, which value is less than 2) | - (specific OD450 or cpm of sera sample binding to peptide divided by the specific OD450 or cpm of NHS sample binding to peptide, which value is less than 2) | - (specific OD450 or cpm of sera sample binding to peptide divided by the specific OD450 or cpm of NHS sample binding to peptide, which value is less than 2) | - (specific OD450 or cpm of sera sample binding to peptide divided by the specific OD450 or cpm of NHS sample binding to peptide, which value is less than 2) | - (specific OD450 or cpm of sera sample binding to peptide divided by the specific OD450 or cpm of NHS sample binding to peptide, which value is less than 2) | - (specific OD450 or cpm of sera sample binding to peptide divided by the specific OD450 or cpm of NHS sample binding to peptide, which value is less than 2) | - (specific OD450 or cpm of sera sample binding to peptide divided by the specific OD450 or cpm of NHS sample binding to peptide, which value is less than 2) | - (specific OD450 or cpm of sera sample binding to peptide divided by the specific OD450 or cpm of NHS sample binding to peptide, which value is less than 2) | - (specific OD450 or cpm of sera sample binding to peptide divided by the specific OD450 or cpm of NHS sample binding to peptide, which value is less than 2) | - (specific OD450 or cpm of sera sample binding to peptide divided by the specific OD450 or cpm of NHS sample binding to peptide, which value is less than 2) | - (specific OD450 or cpm of sera sample binding to peptide divided by the specific OD450 or cpm of NHS sample binding to peptide, which value is less than 2) | - (specific OD450 or cpm of sera sample binding to peptide divided by the specific OD450 or cpm of NHS sample binding to peptide, which value is less than 2) | - (specific OD450 or cpm of sera sample binding to peptide divided by the specific OD450 or cpm of NHS sample binding to peptide, which value is less than 2) | - (specific OD450 or cpm of sera sample binding to peptide divided by the specific OD450 or cpm of NHS sample binding to peptide, which value is less than 2) | - (specific OD450 or cpm of sera sample binding to peptide divided by the specific OD450 or cpm of NHS sample binding to peptide, which value is less than 2) | - (specific OD450 or cpm of sera sample binding to peptide divided by the specific OD450 or cpm of NHS sample binding to peptide, which value is less than 2) | - (specific OD450 or cpm of sera sample binding to peptide divided by the specific OD450 or cpm of NHS sample binding to peptide, which value is less than 2) | Binding of maternal HIV+ serum to peptide (sera/NHS ratio) [20]: - (specific OD450 or cpm of sera sample binding to peptide divided by the specific OD450 or cpm of NHS sample binding to peptide, which value is less than 2)
2 | YDTEVHNVWATHACV [Peptide 94] | Several maternal serum samples had reactivity | ++ (which value is greater than 3) | - (specific OD450 or cpm of sera sample binding to peptide divided by the specific OD450 or cpm of NHS sample binding to peptide, which value is less than 2) | ++ (which value is greater than 3) | - (specific OD450 or cpm of sera sample binding to peptide divided by the specific OD450 or cpm of NHS sample binding to peptide, which value is less than 2) | - (specific OD450 or cpm of sera sample binding to peptide divided by the specific OD450 or cpm of NHS sample binding to peptide, which value is less than 2) | - (specific OD450 or cpm of sera sample binding to peptide divided by the specific OD450 or cpm of NHS sample binding to peptide, which value is less than 2) | - (specific OD450 or cpm of sera sample binding to peptide divided by the specific OD450 or cpm of NHS sample binding to peptide, which value is less than 2) | - (specific OD450 or cpm of sera sample binding to peptide divided by the specific OD450 or cpm of NHS sample binding to peptide, which value is less than 2) | - (specific OD450 or cpm of sera sample binding to peptide divided by the specific OD450 or cpm of NHS sample binding to peptide, which value is less than 2) | - (specific OD450 or cpm of sera sample binding to peptide divided by the specific OD450 or cpm of NHS sample binding to peptide, which value is less than 2) | - (specific OD450 or cpm of sera sample binding to peptide divided by the specific OD450 or cpm of NHS sample binding to peptide, which value is less than 2) | - (specific OD450 or cpm of sera sample binding to peptide divided by the specific OD450 or cpm of NHS sample binding to peptide, which value is less than 2) | - (specific OD450 or cpm of sera sample binding to peptide divided by the specific OD450 or cpm of NHS sample binding to peptide, which value is less than 2) | - (specific OD450 or cpm of sera sample binding to peptide divided by the specific OD450 or cpm of NHS sample binding to peptide, which value is less than 2) | - (specific OD450 or cpm of sera sample binding to peptide divided by the specific OD450 or cpm of NHS sample binding to peptide, which value is less than 2) | - (specific OD450 or cpm of sera sample binding to peptide divided by the specific OD450 or cpm of NHS sample binding to peptide, which value is less than 2) | - (specific OD450 or cpm of sera sample binding to peptide divided by the specific OD450 or cpm of NHS sample binding to peptide, which value is less than 2) | - (specific OD450 or cpm of sera sample binding to peptide divided by the specific OD450 or cpm of NHS sample binding to peptide, which value is less than 2) | - (specific OD450 or cpm of sera sample binding to peptide divided by the specific OD450 or cpm of NHS sample binding to peptide, which value is less than 2) | Number of maternal sera binding to peptide (20 maternal sera): two; Binding of maternal HIV+ serum to peptide (sera/NHS ratio) [20]: - (specific OD450 or cpm of sera sample binding to peptide divided by the specific OD450 or cpm of NHS sample binding to peptide, which value is less than 2); Number of binding maternal sera from the transmission group (vertical transmission group (7 sera)): neither

From patent publication US5556744A, “Methods and compositions for diagnosing and treating certain HIV infected patients” (The Trustees of the University of Pennsylvania, priority 1994, dated 1996)
